Measured values reported in ChEMBL document CHEMBL6177950, “Discovery of potent and selective CDK2 inhibitors with high safety and favorable bioavailability for the treatment of cancer” (Eur J Med Chem, 2025).

Target: Cyclin-dependent kinase 2/cyclin E1 (Homo sapiens, UniProt P24941)
Test: Inhibition of CDK2/Cyclin E1 (unknown origin) pre-incubated for 10 mins followed by ATP/substrate addition and measured after 60 mins by ADP-Glo assay
Format: protein-complex assay
Conditions: not given

IC50 [nM]	Structure (SMILES)
13	CCCCn1cc(-c2nc(NC3CCN(S(C)(=O)=O)CC3)ncc2F)cc(F)c1=O
23	CCn1cc(-c2nc(NC3CCN(S(C)(=O)=O)CC3)ncc2F)cc(F)c1=O
4	CC(C)n1cc(-c2nc(NC3CCN(S(C)(=O)=O)CC3)ncc2F)cc(F)c1=O
222	Cc1cc(-c2nc(NC3CCN(S(C)(=O)=O)CC3)ncc2F)cn(C(C)C)c1=O
6	CCS(=O)(=O)N1CCC(Nc2ncc(F)c(-c3cc(F)c(=O)n(C(C)C)c3)n2)CC1
8	CC(C)n1cc(-c2nc(NC3CCN(S(=O)(=O)C(C)C)CC3)ncc2F)cc(F)c1=O
70	Cn1cc(-c2nc(NC3CCN(S(C)(=O)=O)CC3)ncc2F)cc(F)c1=O
5	CC(C)n1cc(-c2nc(NC3CCN(S(=O)(=O)C4CC4)CC3)ncc2F)cc(F)c1=O
7	CCC(C)n1cc(-c2nc(NC3CCN(S(=O)(=O)CC)CC3)ncc2F)cc(F)c1=O (stereo not drawn)
15	CC(C)=CCn1cc(-c2nc(NC3CCN(S(C)(=O)=O)CC3)ncc2F)cc(F)c1=O
5	CCCS(=O)(=O)N1CCC(Nc2ncc(F)c(-c3cc(F)c(=O)n(C(C)C)c3)n2)CC1
12	CC(C)Cn1cc(-c2nc(NC3CCN(S(C)(=O)=O)CC3)ncc2F)cc(F)c1=O
3	CCC(C)n1cc(-c2nc(NC3CCN(S(C)(=O)=O)CC3)ncc2F)cc(F)c1=O (stereo not drawn)
7	COCCS(=O)(=O)N1CCC(Nc2ncc(F)c(-c3cc(F)c(=O)n(C(C)C)c3)n2)CC1

Second part, the molecule before the results:

Structure (SMILES)	IC50 [nM]
CCCS(=O)(=O)N1CCC(Nc2ncc(F)c(-c3ccc(=O)n(C(C)C)c3)n2)CC1	7
Cc1cc(-c2nc(NC3CCN(S(C)(=O)=O)CC3)ncc2F)cnc1OC(C)C	166
CC(C)n1cc(-c2nc(NC3CCN(S(=O)(=O)C(F)(F)F)CC3)ncc2F)ccc1=O	42
COCCS(=O)(=O)N1CCC(Nc2ncc(F)c(-c3ccc(=O)n(C(C)C)c3)n2)CC1	10
CC(C)Oc1ccc(-c2nc(NC3CCN(S(C)(=O)=O)CC3)ncc2F)cn1	93
CC(C)n1cc(-c2nc(NC3CCN(S(C)(=O)=O)CC3)ncc2F)ccc1=O	7
CC(=O)N1CCC(Nc2ncc(F)c(-c3ccc(=O)n(C(C)C)c3)n2)CC1	63
CCS(=O)(=O)N1CCC(Nc2ncc(F)c(-c3cnc(OC(C)C)c(F)c3)n2)CC1	113
CC(C)Oc1ncc(-c2nc(NC3CCN(S(C)(=O)=O)CC3)ncc2F)cc1C(=O)O	656
COCCS(=O)(=O)N1CCC(Nc2ncc(F)c(-c3cnc(OC(C)C)c(F)c3)n2)CC1	124
CC(C)Oc1ncc(-c2nc(NC3CCN(S(=O)(=O)C(C)C)CC3)ncc2F)cc1F	216
CCC(C)n1cc(-c2nc(NC3CCN(S(=O)(=O)CCOC)CC3)ncc2F)cc(F)c1=O (stereo not drawn)	5
CC(C)n1cc(-c2nc(NC3CCN(S(=O)(=O)C(C)C)CC3)ncc2F)ccc1=O	16
CC(C)Oc1ncc(-c2ccnc(NC3CCN(S(C)(=O)=O)CC3)n2)cc1F	810
CC(C)n1cc(-c2nc(NC3CCNCC3)ncc2F)ccc1=O	> 1000
CCCS(=O)(=O)N1CCC(Nc2ncc(F)c(-c3cnc(OC(C)C)c(F)c3)n2)CC1	130
COc1cnc(NC2CCN(S(C)(=O)=O)CC2)nc1-c1cnc(OC(C)C)c(F)c1	341
CC(C)Oc1ncc(-c2nc(NC3CCN(S(C)(=O)=O)CC3)ncc2F)cc1F	73
CC(C)n1cc(-c2nc(NC3CCN(C(=O)OC(C)(C)C)CC3)ncc2F)ccc1=O	139
Cc1nc(OC(C)C)ccc1-c1nc(NC2CCN(S(C)(=O)=O)CC2)ncc1F	297

Tested on: not listed separately
Test: Antiproliferative activity against CCNE1-amplified human OVCAR-3 cells assessed as cell growth inhibition incubated for 3 days by CCK8 assay
Format: functional, cell-based
Conditions: OVCAR-3, 72 h

Structure (SMILES)	IC50 [nM]
FC(F)Oc1cc(Nc2cnc3cnn(CC4CCOCC4)c3n2)n[nH]1 [CERTOCICLIB]	2310

Tested on: OVCAR-3
Test: Induction of cell cycle arrest in human OVCAR-3 cells assessed as accumulation of cells at G1 phase at 2 uM incubated for 24 hrs by flow cytometry analysis (reference value: 67.73%)
Format: functional
Conditions: not given

Structure (SMILES)	Activity [%]
FC(F)Oc1cc(Nc2cnc3cnn(CC4CCOCC4)c3n2)n[nH]1 [CERTOCICLIB]	95.66

Tested on: OVCAR-3
Test: Induction of cell cycle arrest in human OVCAR-3 cells assessed as accumulation of cells at G2 phase at 2 uM incubated for 24 hrs by flow cytometry analysis (reference value: 21.77%)
Format: functional
Conditions: not given

Structure (SMILES)	Activity [%]
FC(F)Oc1cc(Nc2cnc3cnn(CC4CCOCC4)c3n2)n[nH]1 [CERTOCICLIB]	2.64

Tested on: OVCAR-3
Test: Induction of apoptosis in human OVCAR-3 cells assessed as viable cells at 2 uM incubated for 24 hrs by Annexin V-FITC/PI staining based flow cytometry analysis (reference value: 95.2%)
Format: functional
Conditions: read-out: Activity

Structure (SMILES)	viability at 2 µM [%]
FC(F)Oc1cc(Nc2cnc3cnn(CC4CCOCC4)c3n2)n[nH]1 [CERTOCICLIB]	79.3

Tested on: OVCAR-3
Test: Induction of apoptosis in human OVCAR-3 cells assessed as early apoptotic cells at 2 uM incubated for 24 hrs by Annexin V-FITC/PI staining based flow cytometry analysis (reference value: 1.25%)
Format: functional
Conditions: not given

Structure (SMILES)	Activity [%]
FC(F)Oc1cc(Nc2cnc3cnn(CC4CCOCC4)c3n2)n[nH]1 [CERTOCICLIB]	4.47

Tested on: OVCAR-3
Test: Induction of apoptosis in human OVCAR-3 cells assessed as late apoptotic cells at 2 uM incubated for 24 hrs by Annexin V-FITC/PI staining based flow cytometry analysis (reference value: 2.67%)
Format: functional
Conditions: not given

Structure (SMILES)	Activity [%]
FC(F)Oc1cc(Nc2cnc3cnn(CC4CCOCC4)c3n2)n[nH]1 [CERTOCICLIB]	12.5

Tested on: OVCAR-3
Test: Induction of apoptosis in human OVCAR-3 cells assessed as necrotic cells at 2 uM incubated for 24 hrs by Annexin V-FITC/PI staining based flow cytometry analysis (reference value: 0.87%)
Format: functional
Conditions: not given

Structure (SMILES)	Activity [%]
FC(F)Oc1cc(Nc2cnc3cnn(CC4CCOCC4)c3n2)n[nH]1 [CERTOCICLIB]	3.77

Tested on: MCF7
Test: Antiproliferative activity against wild type human MCF7 cells assessed as cell growth inhibition
Format: functional, cell-based
Conditions: not given

Structure (SMILES)	IC50 [nM]
CC(=O)c1c(C)c2cnc(Nc3ccc(N4CCNCC4)cn3)nc2n(C2CCCC2)c1=O [PALBOCICLIB]	80

Tested on: not listed separately
Test: Antiproliferative activity against Palbociclib-resistance human MCF7 cells assessed as cell growth inhibition
Format: functional, cell-based, Palbociclib-resistant MCF7 cell
Conditions: not given

Structure (SMILES)	IC50 [nM]
CC(=O)c1c(C)c2cnc(Nc3ccc(N4CCNCC4)cn3)nc2n(C2CCCC2)c1=O [PALBOCICLIB]	13800
